Measured values: US9233983B2, “Substituted hetero-bicyclic compounds, compositions and medicinal applications thereof” (ADVINUS THERAPEUTICS LIMITED, priority 2012, dated 2016)
pIC50: −log10 of the molar value.

Legend:
[1] = system: mouse splenocytes; assay: Inhibition of B Cell Activation as Measured by CD69 Expression in Mouse Splenocytes; type: cell-based; details: Splenocyte; C57/BL6 splenocytes, 3 ug/mL goat anti-mouse IgM, 18-20 hrs, CD69+ve cells within CD19; read-out: Mouse spleenocyte IC50
Description: Inhibition of B Cell Activation as Measured by CD69 Expression in Mouse Splenocytes:
To test the effect of BTK inhibitors in suppressing B-cell receptor (BCR) mediated activation of B cells, we developed a flow cytometry based assay to analyze CD69 expression in B cell population among total splenocyte from the mouse. […] Finally, cell were cultured in RPMI medium with 10% FBS.
Test compounds were diluted half log starting from 2 mM in 100% DMSO (200×). 1×10^5 splenocytes were incubated with 1 uL of diluted test compounds in 200 uL culture medium in a U-bottom 96 well plate (Greiner) at 37° C. with 5% CO2 for 30 mins. Control wells received 1 uL of 100% DMSO without any compound. The cells were stimulated with 3 ug/mL goat anti-mouse IgM (Sigma, cat#M8644) and incubated for 18-20 hrs. […] Then the cells were washed 3 times with PBS with 1% FBS and analyzed by Guava Easycyte Mini flow cytometer system (Millipore). Flow cytometry data were analyzed using Weasel software (WEHI, Melbourne). First B cells were gated using CD19 markers. Then expression of CD69 was analyzed as percentage of CD69+ve cells within CD19. Percent activity for each data point was calculated using following formula: […]
Percentage activity was fit using sigmoid dose response with variable slope logistic equation in Graph-pad Prism 5 software to determine inhibition constant 50 (IC50).

[2] = target: human Bruton's Tyrosine Kinase (Btk) (Homo sapiens (Human), UniProt Q06187); assay: Recombinant Human Bruton's Tyrosine Kinase (Btk) Inhibition Assay (HTRF KinEASE-TK); type: biochemical; details: 20 ng/ml rhBtk, 77 μM ATP (KM), 1 μM TK-Biotin substrate, 90 min; read-out: hBTK IC50
Sequence of human Bruton's Tyrosine Kinase (Btk) (Q06187 whole entry): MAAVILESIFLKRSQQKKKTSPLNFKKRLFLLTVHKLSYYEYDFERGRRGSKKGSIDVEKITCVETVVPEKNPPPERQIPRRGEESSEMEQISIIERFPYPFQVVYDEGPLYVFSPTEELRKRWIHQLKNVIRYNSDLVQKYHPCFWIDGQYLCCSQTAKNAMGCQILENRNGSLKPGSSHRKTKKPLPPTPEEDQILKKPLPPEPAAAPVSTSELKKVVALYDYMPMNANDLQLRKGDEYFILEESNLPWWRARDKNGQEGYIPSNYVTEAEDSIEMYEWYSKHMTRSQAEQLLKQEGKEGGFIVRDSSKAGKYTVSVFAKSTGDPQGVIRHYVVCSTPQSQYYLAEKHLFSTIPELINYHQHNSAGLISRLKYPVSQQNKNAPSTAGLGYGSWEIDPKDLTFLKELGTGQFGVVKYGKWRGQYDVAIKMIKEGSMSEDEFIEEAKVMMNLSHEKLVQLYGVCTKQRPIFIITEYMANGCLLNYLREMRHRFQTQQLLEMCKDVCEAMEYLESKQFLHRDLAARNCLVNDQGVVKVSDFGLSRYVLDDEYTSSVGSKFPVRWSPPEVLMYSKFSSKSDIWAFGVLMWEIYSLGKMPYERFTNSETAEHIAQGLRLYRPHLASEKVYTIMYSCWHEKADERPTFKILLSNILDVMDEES

| SMILES | pIC50 [1] | pIC50 [2] |
| --- | --- | --- |
| CN1CCN(Cc2ccc(-c3cc4c(-c5cccc(N6CCOc7cc(C8CC8)ccc7C6=O)c5CO)ccnc4[nH]3)nc2)CC1 [Example I-1, 8-cyclopropyl-4-[2-(hydroxymethyl)-3-[2-[5-[(4-methylpiperazin-1-yl)methyl]-2-pyridyl]-1H-pyrrolo[2,3-b]pyridin-4-yl]phenyl]-2,3-dihydro-1,4-benzoxazepin-5-one] | 7.85 | 8.30 |
| CN1CCN(Cc2ccc(-c3cc4c(-c5cccc(N6CCOc7cc(C8CC8)cc(F)c7C6=O)c5CO)ccnc4[nH]3)nc2)CC1 [Example I-2, 8-cyclopropyl-6-fluoro-4-[2-(hydroxymethyl)-3-[2-[5-[(4-methylpiperazin-1-yl)methyl]-2-pyridyl]-1H-pyrrolo[2,3-b]pyridin-4-yl]phenyl]-2,3-dihydro-1,4-benzoxazepin-5-one] | 8.30 | 9.00 |
| CCN1CCN(Cc2ccc(-c3cc4c(-c5cccc(N6CCOc7cc(C8CC8)ccc7C6=O)c5CO)ccnc4[nH]3)nc2)CC1 [Example I-4, 8-cyclopropyl-4-[3-[2-[5-[(4-ethylpiperazin-1-yl)methyl]-2-pyridyl]-1H-pyrrolo[2,3-b]pyridin-4-yl]-2-(hydroxymethyl)phenyl]-2,3-dihydro-1,4-benzoxazepin-5-one] | 7.64 | 8.70 |
| O=C1c2ccc(C3CC3)cc2OCCN1c1cccc(-c2ccnc3[nH]c(-c4ccc(CN5CCN(C6CC6)CC5)cn4)cc23)c1CO [Example I-5, 8-cyclopropyl-4-[3-[2-[5-[(4-cyclopropylpiperazin-1-yl)methyl]-2-pyridyl]-1H-pyrrolo[2,3-b]pyridin-4-yl]-2-(hydroxymethyl)phenyl]-2,3-dihydro-1,4-benzoxazepin-5-one] | 7.52 | 8.52 |
| CS(=O)(=O)N1CCN(Cc2ccc(-c3cc4c(-c5cccc(N6CCOc7cc(C8CC8)ccc7C6=O)c5CO)ccnc4[nH]3)nc2)CC1 [Example I-6, 8-cyclopropyl-4-[2-(hydroxymethyl)-3-[2-[5-[(4-methylsulfonylpiperazin-1-yl)methyl]-2-pyridyl]-1H-pyrrolo[2,3-b]pyridin-4-yl]phenyl]-2,3-dihydro-1,4-benzoxazepin-5-one] | 7.44 | 8.52 |
| CC(C)N1CCN(Cc2ccc(-c3cc4c(-c5cccc(N6CCOc7cc(C8CC8)ccc7C6=O)c5CO)ccnc4[nH]3)nc2)CC1 [Example I-7, 8-cyclopropyl-4-[2-(hydroxymethyl)-3-[2-[5-[(4-isopropylpiperazin-1-yl)methyl]-2-pyridyl]-1H-pyrrolo[2,3-b]pyridin-4-yl]phenyl]-2,3-dihydro-1,4-benzoxazepin-5-one] | 7.68 | 8.70 |
| O=C1c2ccc(C3CC3)cc2OCCN1c1cccc(-c2ccnc3[nH]c(-c4ccc(CN5CCS(=O)(=O)CC5)cn4)cc23)c1CO [Example I-8, 8-cyclopropyl-4-[3-[2-[5-[(1,1-dioxo-1,4-thiazinan-4-yl)methyl]-2-pyridyl]-1H-pyrrolo[2,3-b]pyridin-4-yl]-2-(hydroxymethyl)phenyl]-2,3-dihydro-1,4-benzoxazepin-5-one] | 7.07 | 8.05 |
| O=C1c2ccc(C3CC3)cc2OCCN1c1cccc(-c2ccnc3[nH]c(-c4ccc(CN5CCN(CC(F)(F)F)CC5)cn4)cc23)c1CO [Example I-9, 8-cyclopropyl-4-[2-(hydroxymethyl)-3-[2-[5-[[4-(2,2,2-trifluoroethyl)piperazin-1-yl]methyl]-2-pyridyl]-1H-pyrrolo[2,3-b]pyridin-4-yl]phenyl]-2,3-dihydro-1,4-benzoxazepin-5-one] | 7.33 | 8.10 |
| O=C1c2ccc(C3CC3)cc2OCCN1c1cccc(-c2ccnc3[nH]c(-c4ccc(CN5CCN(S(=O)(=O)C6CC6)CC5)cn4)cc23)c1CO [Example I-10, 8-cyclopropyl-4-[3-[2-[5-[(4-cyclopropylsulfonylpiperazin-1-yl)methyl]-2-pyridyl]-1H-pyrrolo[2,3-b]pyridin-4-yl]-2-(hydroxymethyl)phenyl]-2,3-dihydro-1,4-benzoxazepin-5-one] | 7.51 | 8.15 |
| CCN1CCN(Cc2ccc(-c3cc4c(-c5cccc(N6CCOc7cc(C8CC8)cc(F)c7C6=O)c5CO)ccnc4[nH]3)nc2)CC1 [Example I-12, 8-cyclopropyl-4-[3-[2-[5-[(4-ethylpiperazin-1-yl)methyl]-2-pyridyl]-1H-pyrrolo[2,3-b]pyridin-4-yl]-2-(hydroxymethyl)phenyl]-6-fluoro-2,3-dihydro-1,4-benzoxazepin-5-one] | 7.34 | 8.70 |
| O=C1c2c(F)cc(C3CC3)cc2OCCN1c1cccc(-c2ccnc3[nH]c(-c4ccc(CN5CCN(C6COC6)CC5)cn4)cc23)c1CO [Example I-13, 8-cyclopropyl-6-fluoro-4-[2-(hydroxymethyl)-3-[2-[5-[[4-(oxetan-3-yl)piperazin-1-yl]methyl]-2-pyridyl]-1H-pyrrolo[2,3-b]pyridin-4-yl]phenyl]-2,3-dihydro-1,4-benzoxazepin-5-one] | 8.10 | 8.70 |
| CC1CN(Cc2ccc(-c3cc4c(-c5cccc(N6CCOc7cc(C8CC8)cc(F)c7C6=O)c5CO)ccnc4[nH]3)nc2)CC(C)N1C (stereo not shown) [Example I-14, 8-cyclopropyl-6-fluoro-4-[2-(hydroxymethyl)-3-[2-[5-[(3,4,5-trimethylpiperazin-1-yl)methyl]-2-pyridyl]-1H-pyrrolo[2,3-b]pyridin-4-yl]phenyl]-2,3-dihydro-1,4-benzoxazepin-5-one] | 8.12 | 8.77 |
| CN1CCN(Cc2ccc(-c3cc4c(-c5cccc(N6CCOc7cc(C8CC8)cc(F)c7C6=O)c5CO)ccnc4[nH]3)nc2)CC1=O [Example I-15, 8-cyclopropyl-6-fluoro-4-[2-(hydroxymethyl)-3-[2-[5-[(4-methyl-3-oxo-piperazin-1-yl)methyl]-2-pyridyl]-1H-pyrrolo[2,3-b]pyridin-4-yl]phenyl]-2,3-dihydro-1,4-benzoxazepin-5-one] | 7.74 | 8.82 |
| O=C1c2c(F)cc(C3CC3)cc2OCCN1c1cccc(-c2ccnc3[nH]c(-c4ccc(CN5CCN(CC(F)(F)F)CC5)cn4)cc23)c1CO [Example I-16, 8-cyclopropyl-6-fluoro-4-[2-(hydroxymethyl)-3-[2-[5-[[4-(2,2,2-trifluoroethyl)piperazin-1-yl]methyl]-2-pyridyl]-1H-pyrrolo[2,3-b]pyridin-4-yl]phenyl]-2,3-dihydro-1,4-benzoxazepin-5-one] | 8.11 | 8.80 |
| CN1CCC(F)(c2ccc(-c3cc4c(-c5cccc(N6CCOc7cc(C8CC8)ccc7C6=O)c5CO)ccnc4[nH]3)cc2)CC1 [Example J-1, 8-cyclopropyl-4-[3-[2-[4-(4-fluoro-1-methyl-4-piperidyl)phenyl]-1H-pyrrolo[2,3-b]pyridin-4-yl]-2-(hydroxymethyl)phenyl]-2,3-dihydro-1,4-benzoxazepin-5-one] | 6.75 | 8.05 |
| CN1CCCC(F)(c2ccc(-c3cc4c(-c5cccc(N6CCOc7cc(C8CC8)ccc7C6=O)c5CO)ccnc4[nH]3)cc2)C1 (stereo not shown) [Example J-2, 8-cyclopropyl-4-[3-[2-[4-(3-fluoro-1-methyl-3-piperidyl)phenyl]-1H-pyrrolo[2,3-b]pyridin-4-yl]-2-(hydroxymethyl)phenyl]-2,3-dihydro-1,4-benzoxazepin-5-one] | 7.11 | 8.46 |
| Cc1c(-c2ncnc3[nH]c(-c4ccc(C(=O)N5CCN(C)CC5)cc4)cc23)cccc1N1CCOc2cc(C3CC3)ccc2C1=O [Example K-1, 8-cyclopropyl-4-[2-methyl-3-[6-[4-(4-methylpiperazine-1-carbonyl)phenyl]-7H-pyrrolo[2,3-d]pyrimidin-4-yl]phenyl]-2,3-dihydro-1,4-benzoxazepin-5-one] | 6.83 | 7.70 |
| Cc1c(-c2ncnc3[nH]c(-c4ccc(C(=O)N5CCC(O)CC5)cc4)cc23)cccc1N1CCOc2cc(C3CC3)ccc2C1=O [Example K-2, 8-cyclopropyl-4-[3-[6-[4-(4-hydroxypiperidine-1-carbonyl)phenyl]-7H-pyrrolo[2,3-d]pyrimidin-4-yl]-2-methyl-phenyl]-2,3-dihydro-1,4-benzoxazepin-5-one] | 6.09 | 7.49 |
| Cc1c(-c2ncnc3[nH]c(-c4ccc(C(=O)N5CCC(C)(O)CC5)cc4)cc23)cccc1N1CCOc2cc(C3CC3)ccc2C1=O [Example K-4, 8-cyclopropyl-4-[3-[6-[4-(4-hydroxy-4-methyl-piperidine-1-carbonyl)phenyl]-7H-pyrrolo[2,3-d]pyrimidin-4-yl]-2-methyl-phenyl]-2,3-dihydro-1,4-benzoxazepin-5-one] | 6.89 | 7.29 |
| Cc1c(-c2ncnc3[nH]c(-c4ccc(C(=O)N5CCNCC5)cc4)cc23)cccc1N1CCOc2cc(C3CC3)ccc2C1=O [Example K-6, 8-cyclopropyl-4-[2-methyl-3-[6-[4-(piperazine-1-carbonyl)phenyl]-7H-pyrrolo[2,3-d]pyrimidin-4-yl]phenyl]-2,3-dihydro-1,4-benzoxazepin-5-one] | 6.72 | 8.01 |
